Laboratory results from patent US11419806B2, “Prebiotic oral care methods using a saccharide” (Colgate-Palmolive Company, priority 2013, dated 2022).

Columns and labels:
Format in all cases: cell-based
A. naeslundii = assay: Twenty-four hour biofilm growth (crystal violet)
Experimental: (§1) The increase in biofilm formation of the tested bacteria in response to selected saccharides (D-turanose, D-lactitol, myo-inositol, and N-acetyl-D-mannosamine) was investigated by setting up biofilm growth assays in a nutritionally rich medium (brain heart infusion broth (BHI), Oxoid), over 24 hours. Late exponential growth phase liquid cultures were prepared by transferring the respective bacterium from blood agar plates to BHI and overnight incubation at 37° C. in an anaerobic atmosphere for A. viscosus, V. parvula, P. gingivalis, P. intermedia, T. forsythia, A. naeslundii, and C. sputigena, and in a 5% CO2 environment for S. salivarius, S. sanguinis, S. mitis, A. actinomycetemcomitans, S. mutans, and S. gordonii. Overnight cultures were transferred to BHI and adjusted to a concentration of 1×10^7 CFU/ml by measuring the optical density at 600 nm (OD600) (BioRad SmartSpec 3000). For each strain, 200 μl of the bacterial suspension was added to a 96-well plate containing 20 μl of the respective saccharides. Final concentrations of the saccharides were set to 5, 10, 20 and 25 μmol/ml. […] Additionally, for each bacterium tested, a background control, to correct for background staining, was added. This background control contained the bacterium tested and 0.03 weight % chlorhexidine, as an antiseptic. Plates were incubated as previously described. After 24 hrs the supernatant was removed from the wells of the plates. The wells were washed twice with 1×100 μL PBS (phosphate buffered saline), fixed for 20 minutes with 96% vol. ethanol (96% vol. solution in water) and the biofilm retained at the bottom of the wells was stained with 1 weight % crystal violet (1 weight % solution in water). The bound dye was dissolved with 5% vol. acetic acid (5% vol. solution in water). Quantification of the stained biofilm was performed by measuring the absorbance at 630 nm using a Multiskan Ascent microplate reader (Thermo Scientific).
(§2) The experiment was carried out on three different days (thus providing 3 biological replicas) and each day the experiment was carried out in quadruple (thus providing 4 technical replicas) for each combination of bacterium with saccharide and for each control. For each day and for each combination, the average (mean) of the values obtained (as detailed above) for the four technical replicas was calculated to provide a single value for each combination on each day. The values shown in Tables 7a, 7b, 8a, 8b, below, are the average (mean) of the three single values obtained for each combination of bacterium with saccharide.

P. intermedia = assay: Twenty-four hour biofilm growth (crystal violet)
Experimental: as §1, §2

S. mutans = assay: Twenty-four hour biofilm growth (crystal violet); conditions: S mutans
Experimental: as §1, §2

A. actinomycetemcomitans = assay: Twenty-four hour biofilm growth (crystal violet)
Experimental: as §1, §2

V. parvula = assay: Twenty-four hour biofilm growth (crystal violet)
Experimental: as §1, §2

S. gordonii = assay: Twenty-four hour biofilm growth (crystal violet)
Experimental: as §1, §2

P. gingivalis = assay: Twenty-four hour biofilm growth (crystal violet)
Experimental: as §1, §2

C. sputigena = assay: Twenty-four hour biofilm growth (crystal violet)
Experimental: as §1, §2

T. forsythia = assay: Twenty-four hour biofilm growth (crystal violet)
Experimental: as §1, §2

A. viscosus = assay: Twenty-four hour biofilm growth (crystal violet)
Experimental: as §1, §2

[1] = system: beneficial oral bacteria and pathogenic oral bacteria; assay: Twenty-four hour optical density, overall prebiotic assessment; conditions: concentrations of 5, 10, 20 and 25 μmol/ml
Excerpt: Substrates that were able to increase the growth (or maximal growth density or extent of growth) of at least one of the above beneficial bacteria while not or only minimally increasing the growth (or maximal growth density) of the pathogenic bacteria are considered to be prebiotic compounds.
The extent of growth of the tested bacteria in response to selected saccharides (myo-inositol, D-lactitol, D-turanose and N-acetyl-D-mannosamine) was investigated by setting up growth curves in a nutritionally rich medium (brain heart infusion broth (BHI), Oxoid), over 24 hours. Late exponential growth phase liquid cultures were prepared by transferring the respective bacterium from blood agar plates to BHI and overnight incubation at 37° C. in an anaerobic atmosphere for A. viscosus, V. parvula, F. nucleatum, P. gingivalis, P. intermedia, T. forsythia, A. naeslundii, and C. sputigena, and in a 5% CO2 environment for S. salivarius, S. sanguinis, S. mitis, A. actinomycetemcomitans, S. mutans, S. sobrinus and S. gordonii. […]
For each combination of bacterium/saccharide, and for each of their respective controls (i.e. the particular bacterium in the nutritionally rich medium with no saccharide), the optical density was measured at 630 nm (OD630) at 0 h and 24 h (Thermo Scientific Multiskan Ascent). Additionally, the OD630 for combinations of bacterium/saccharides grown in a 5% CO2 environment were also measured every hour between 0 h and 9 h.
as §2, with “replicas) and on each day” for “replicas) and each day”, “each day. […]” for “each day. The values shown in Tables 7a, 7b, 8a, 8b, below, are the average (mean) of the three single values obtained for each combination of bacterium with saccharide.”

Which results are given for OC[C@H]1O[C@@](O)(CO)[C@@H](O[C@H]2O[C@H](CO)[C@@H](O)[C@H](O)[C@H]2O)[C@@H]1O [D-Turanose, α-D-glucopyranosyl-(1→3)-α-D-fructofuranose]?
biofilm growth: OD 630 nm at 24 hrs divided by OD of control (control = 1) (A. naeslundii; 5 μmol/ml): 1.5849; biofilm growth: OD 630 nm at 24 hrs divided by OD of control (control = 1) (A. naeslundii; 10 μmol/ml): 1.4372; biofilm growth: OD 630 nm at 24 hrs divided by OD of control (control = 1) (A. naeslundii; 20 μmol/ml): 1.4348; biofilm growth: OD 630 nm at 24 hrs divided by OD of control (control = 1) (A. naeslundii; 25 μmol/ml): 1.4411; biofilm growth: OD 630 nm at 24 hrs divided by OD of control (control = 1) (P. intermedia; 5 μmol/ml): 2.0059; biofilm growth: OD 630 nm at 24 hrs divided by OD of control (control = 1) (P. intermedia; 10 μmol/ml): 1.8143; biofilm growth: OD 630 nm at 24 hrs divided by OD of control (control = 1) (P. intermedia; 20 μmol/ml): 1.5017; biofilm growth: OD 630 nm at 24 hrs divided by OD of control (control = 1) (P. intermedia; 25 μmol/ml): 1.1725; biofilm growth: OD 630 nm at 24 hrs divided by OD of control (control = 1) (S. mutans; 5 μmol/ml): 1.0356; biofilm growth: OD 630 nm at 24 hrs divided by OD of control (control = 1) (S. mutans; 10 μmol/ml): 1.1168; biofilm growth: OD 630 nm at 24 hrs divided by OD of control (control = 1) (S. mutans; 20 μmol/ml): 1.1403; biofilm growth: OD 630 nm at 24 hrs divided by OD of control (control = 1) (S. mutans; 25 μmol/ml): 1.1529; biofilm growth: OD 630 nm at 24 hrs divided by OD of control (control = 1) (A. actinomycetemcomitans; 5 μmol/ml): 0.9734; biofilm growth: OD 630 nm at 24 hrs divided by OD of control (control = 1) (A. actinomycetemcomitans; 10 μmol/ml): 0.9794; biofilm growth: OD 630 nm at 24 hrs divided by OD of control (control = 1) (A. actinomycetemcomitans; 20 μmol/ml): 1.0297; biofilm growth: OD 630 nm at 24 hrs divided by OD of control (control = 1) (A. actinomycetemcomitans; 25 μmol/ml): 0.9417; biofilm growth: OD 630 nm at 24 hrs divided by OD of control (control = 1) (V. parvula; 5 μmol/ml): 1.2298; biofilm growth: OD 630 nm at 24 hrs divided by OD of control (control = 1) (V. parvula; 10 μmol/ml): 1.3941; biofilm growth: OD 630 nm at 24 hrs divided by OD of control (control = 1) (V. parvula; 20 μmol/ml): 1.4942; biofilm growth: OD 630 nm at 24 hrs divided by OD of control (control = 1) (V. parvula; 25 μmol/ml): 1.3055; biofilm growth: OD 630 nm at 24 hrs divided by OD of control (control = 1) (S. gordonii; 5 μmol/ml): 1.0874; biofilm growth: OD 630 nm at 24 hrs divided by OD of control (control = 1) (S. gordonii; 10 μmol/ml): 1.1335; biofilm growth: OD 630 nm at 24 hrs divided by OD of control (control = 1) (S. gordonii; 20 μmol/ml): 1.1002; biofilm growth: OD 630 nm at 24 hrs divided by OD of control (control = 1) (S. gordonii; 25 μmol/ml): 1.2536; biofilm growth: OD 630 nm at 24 hrs divided by OD of control (control = 1) (P. gingivalis; 5 μmol/ml): 0.9121; biofilm growth: OD 630 nm at 24 hrs divided by OD of control (control = 1) (P. gingivalis; 10 μmol/ml): 0.8700; biofilm growth: OD 630 nm at 24 hrs divided by OD of control (control = 1) (P. gingivalis; 20 μmol/ml): 0.9602; biofilm growth: OD 630 nm at 24 hrs divided by OD of control (control = 1) (P. gingivalis; 25 μmol/ml): 0.9613; biofilm growth: OD 630 nm at 24 hrs divided by OD of control (control = 1) (C. sputigena; 5 μmol/ml): 0.9429; biofilm growth: OD 630 nm at 24 hrs divided by OD of control (control = 1) (C. sputigena; 10 μmol/ml): 0.9387; biofilm growth: OD 630 nm at 24 hrs divided by OD of control (control = 1) (C. sputigena; 20 μmol/ml): 0.9130; biofilm growth: OD 630 nm at 24 hrs divided by OD of control (control = 1) (C. sputigena; 25 μmol/ml): 0.9464; biofilm growth: OD 630 nm at 24 hrs divided by OD of control (control = 1) (T. forsythia; 5 μmol/ml): 0.8918; biofilm growth: OD 630 nm at 24 hrs divided by OD of control (control = 1) (T. forsythia; 10 μmol/ml): 0.9297; biofilm growth: OD 630 nm at 24 hrs divided by OD of control (control = 1) (T. forsythia; 20 μmol/ml): 0.7855; biofilm growth: OD 630 nm at 24 hrs divided by OD of control (control = 1) (T. forsythia; 25 μmol/ml): 0.8404; biofilm growth: OD 630 nm at 24 hrs divided by OD of control (control = 1) (A. viscosus; 5 μmol/ml): 0.1692; biofilm growth: OD 630 nm at 24 hrs divided by OD of control (control = 1) (A. viscosus; 10 μmol/ml): 0.0920; biofilm growth: OD 630 nm at 24 hrs divided by OD of control (control = 1) (A. viscosus; 20 μmol/ml): 0.0289; biofilm growth: OD 630 nm at 24 hrs divided by OD of control (control = 1) (A. viscosus; 25 μmol/ml): 0.0366; prebiotic effects (extent of growth, threshold value 1.25) [1]: exhibited prebiotic effects
